The results in this text go back to patent publication US9579325B2, “Modulators of TNF-α signaling” (Genzyme Corporation, priority 2000, dated 2017).

SMILES strings stand for the structures.

One assay deals with L929 cells. The assay is described as follows: TNF High Throughput Screen (TNF-α driven apoptosis assay). It counts as cell-based, mouse. The note with it: Mus musculus, compound at 1 μM, human TNF-α + actinomycin D, read-out: TNFα % Inh. @ 1 μM. The text has this:
Description of Table V: The results shown in Table V were obtained using the TNF-α assays performed as described in the protocols entitled “Method for TNF High Throughput Screen” and “Method for VCAM High Throughput Screen”, which are detailed below. These assays measure a cellular response to TNF-α stimulation, and the data published in the table are expressed as percentage inhibitions. Percentage inhibition is computed on a scale of 0 to 100% where 0 percent inhibition means the compound has no effect in the assay (the response is indistinguishable from TNF-α treatment alone), and 100% inhibition means that when the compound is present at the stated concentration, the response in the assay is the same as if TNF-α were not added. These two assays measure two different outcomes of TNF-α treatment, cell death and Vascular Cell Adhesion Molecule (VCAM) expression, and capture two of TNF-α's many biological effects. TNF-α induced apoptosis is a mechanism by which TNF-α production during immune/inflammatory responses can lead to direct cellular and tissue damage. TNF-α VCAM expression in endothelial cells is a response that allows leukocytes to leave the blood and enter a site of immune/inflammatory response. Both of these activities could lead to pathology in immune/inflammatory diseases. In the first column of the table, the percentage inhibition of the TNF-α driven apoptosis assay when the compounds are tested at 1 μM concentration is presented. The second column in the table lists the IC50 for the compound, a standard measure using a dilution series in the assay, and fitting a sigmoidal curve to the resulting dose-response curve. The IC50 is the concentration (derived analytically from the sigmoidal function) at which the compound would inhibit 50% of the response in the assay. The third and fourth column list the corresponding analysis for the TNF-α driven VCAM assay. In Table VI, data corresponding to the data in column 1 of Table V is shown, with human cells replacing the mouse cells used in the high throughput screen. […] As a consequence, the compounds will have use in treating more than one TNF-α mediated condition, and may be selected according to the manner in which the condition manifests. This corresponds to the use of these compounds in the treatment of human disease.
TNF High Throughput Screen.
• 1. Plate 4×10^4 L929 cells in 100 μl of complete EMEM in Costar 96 well plates in PM. • 2. The next day, pretreat with compound, inhibitor and control vehicle for 2 hours. • 3. After 2 hours pretreatment, add 10 μl 5 ng/ml human TNF-α and actinomycin D (40 μg/ml final concentration). • 4. Incubate overnight. • 5. In AM, remove supernatant. • 6. Wash on a plate washer (0.9% NaCl). • 7. Add 100 μl Crystal Violet 0.1% in 20% ETOH. • 8. Incubate at RT for 10 minutes. • 9. Wash on plate washer. • 10. Air dry wells at 37° C. • 11. Add 100 μl of methanol to each well. • 12. Shake plates on orbital shaker and read at 595 nm on plate reader. VCAM High Throughput Screen: Protocol: • 1. Plate Primary human umbilical vein endothelial cells at 1.8×10^4 cells/well in a 96-well tissue culture plate. • 2. Return Plates to 37° C. incubator for 48-72 hours before assay. • 3. On assay day, aspirate wells and add 1804, of endothelial growth cell medium (EGM) to each well. • 4. Add Compound to each well. • 5. Shake plates for 3 minutes. • 6. Incubate plate for 1 hour at 37° C. • 7. Add Tumor Necrosis Factor (TNF) at 1.0 ng/ml final concentration. • 8. Shake plates for 3 minutes. • 9. Incubate plate for 2 hours at 37° C. • 10. Remove plate from incubator and wash plate 3 times with phosphate buffered saline (PBS) using a plate washer. • 11. Add anti-VCAM antibody at 0.5 μg/ml final concentration. • 12. Incubate at 4° C. overnight. • 13. Wash 3 times with PBS on plate washer. • 14. Add goat anti-mouse horseradish peroxidase conjugate. • 15. Incubate at room temperature for one hour. • 16. Wash 3 times with PBS on plate washer. • 17. […]
`COc1ccc(Oc2cccc(C(C(=O)NCc3cc(OC)c(OC)c(OC)c3)N(C(=O)CC(c3ccccc3)c3ccccc3)c3ccccc3C(N)=O)c2)cc1` (stereo not shown) [Compound 57]: the inhibition at 1 µM was 56%. Same read-out and setting: in the case of `O=C(NCC(c1ccccc1)c1ccccc1)C(c1ccccc1)N(CCc1c[nH]cn1)C(=O)c1cccc2c1-c1ccccc1C2` (stereo not shown) [Compound 58] it was 50%; in that of `N#Cc1cccc(C(C(=O)NCC(c2ccccc2)c2ccccc2)N(CCc2c[nH]cn2)C(=O)CCCCc2ccccc2)c1` (stereo not shown) [Compound 60], 50%; in that of `O=C(c1ccc(Cl)cc1)c1ccccc1C(=O)N(CCCn1ccnc1)C(C(=O)NCC(c1ccccc1)c1ccccc1)c1ccccc1` (stereo not shown) [Compound 61], 51%. Same read-out and setting: in the case of `O=C(c1ccccc1)c1ccccc1C(=O)N(CCc1c[nH]cn1)C(C(=O)NCC(c1ccccc1)c1ccccc1)C(c1ccccc1)c1ccccc1` (stereo not shown) [Compound 62] it was 59%; in that of `CN(C)CCCN(C(=O)c1ccccc1C(=O)c1ccccc1)C(C(=O)NC(C)(C)CC(C)(C)C)c1cccc(C#N)c1` (stereo not shown) [Compound 63], 55%; in that of `N#Cc1cccc(C(C(=O)NC(Cc2ccccc2)c2ccccc2)N(CCc2c[nH]cn2)C(=O)c2ccccc2C(=O)c2ccc(Cl)cc2)c1` (stereo not shown) [Compound 64], 63%. Still for that read-out and setting: the same measure for `CCCCc1ccc(C(=O)N(CCc2c[nH]cn2)C(C(=O)NCCC(c2ccccc2)c2ccccc2)c2ccccc2)cc1` (stereo not shown) [Compound 65]: 52%. Consider `COc1cccc(C(=O)N(CCc2c[nH]cn2)C(C(=O)NCCC(c2ccccc2)c2ccccc2)c2cccc(C#N)c2)c1OC` (stereo not shown) [Compound 66], for which the inhibition at 1 µM amounted to 51%. As for `N#Cc1cccc(C(C(=O)NCCC(c2ccccc2)c2ccccc2)N(CCc2c[nH]cn2)C(=O)Cc2ccc3ccccc3c2)c1` (stereo not shown) [Compound 67], the inhibition at 1 µM came to 52%. Same read-out and setting: the same measure for `N#Cc1cccc(C(C(=O)NCCC(c2ccccc2)c2ccccc2)N(CCc2c[nH]cn2)C(=O)c2cccc3ccccc23)c1` (stereo not shown) [Compound 68]: 57%.

Take `N#Cc1cccc(C(C(=O)NCCC(c2ccccc2)c2ccccc2)N(CCc2c[nH]cn2)C(=O)CCC2CCCCC2)c1` (stereo not shown) [Compound 69]: the inhibition at 1 µM was 61%. As to `COc1cccc(C(=O)N(CCc2c[nH]cn2)C(C(=O)NCCC(c2ccccc2)c2ccccc2)c2cccc(C#N)c2)c1` (stereo not shown) [Compound 70], the inhibition at 1 µM is 58%.

`COc1ccc(CCNC(=O)C(c2cccc(C#N)c2)N(CCc2c[nH]cn2)C(=O)c2cccn2C)cc1` (stereo not shown) [Compound 71]: the inhibition at 1 µM stood at 57%. On the same count and under the same terms, the same measure for `COc1ccc(CCNC(=O)C(c2cccc(C#N)c2)N(CCc2c[nH]cn2)C(=O)CCC2CCCC2)cc1` (stereo not shown) [Compound 72]: 57%. For the compound `COc1ccc(CCNC(=O)C(c2cccc(C#N)c2)N(CCc2c[nH]cn2)C(=O)CCC(C)=O)cc1` (stereo not shown) [Compound 73], the inhibition at 1 µM came to 76%. Still for that read-out and setting: the same measure for `COc1ccc(CCNC(=O)C(c2cccc(C#N)c2)N(CCc2c[nH]cn2)C(=O)c2cnc3ccccc3n2)cc1` (stereo not shown) [Compound 74]: 55%; for `COc1ccc(CCNC(=O)C(c2cccc(C#N)c2)N(CCc2c[nH]cn2)C(=O)Cc2c(C)[nH]c3ccccc23)cc1` (stereo not shown) [Compound 75]: 67%; for `COc1ccc(CCNC(=O)C(c2cccc(C#N)c2)N(CCc2c[nH]cn2)C(=O)CCCc2c[nH]c3ccccc23)cc1` (stereo not shown) [Compound 76]: 56%. The same measure, in the same setting: in the case of `COc1ccc(CCNC(=O)C(c2cccc(C#N)c2)N(CCc2c[nH]cn2)C(=O)Cc2c[nH]c3ccccc23)cc1` (stereo not shown) [Compound 77] it was 54%; in that of `COc1ccc(CCNC(=O)C(c2cccc(C#N)c2)N(CCc2c[nH]cn2)C(=O)Cc2c[nH]c3ccc(Br)cc23)cc1` (stereo not shown) [Compound 78], 60%. Same read-out and setting: the same measure for `COc1ccc(CCNC(=O)C(c2cccc(C#N)c2)N(CCc2c[nH]cn2)C(=O)c2cccc(Cl)c2)cc1` (stereo not shown) [Compound 79]: 62%; for `N#Cc1cccc(C(C(=O)NCC(c2ccccc2)c2ccccc2)N(CCc2c[nH]cn2)C(=O)c2cnc3ccccc3n2)c1` (stereo not shown) [Compound 80]: 53%. In the case of `N#Cc1cccc(C(C(=O)NCC(c2ccccc2)c2ccccc2)N(CCc2c[nH]cn2)C(=O)c2c[nH]nc2N)c1` (stereo not shown) [Compound 81], the inhibition at 1 µM stood at 50%.

For the compound `N#Cc1cccc(C(C(=O)NCC(c2ccccc2)c2ccccc2)N(CCc2c[nH]cn2)C(=O)C(O)Cc2c[nH]c3ccccc23)c1` (stereo not shown) [Compound 82], the inhibition at 1 µM stood at 55%. On the same count and under the same terms, in the case of `N#Cc1cccc(C(C(=O)NCC(c2ccccc2)c2ccccc2)N(CCc2c[nH]cn2)C(=O)c2cccc(F)c2)c1` (stereo not shown) [Compound 83] it was 56%; in that of `N#Cc1cccc(C(C(=O)NCC(c2ccccc2)c2ccccc2)N(CCc2c[nH]cn2)C(=O)CCCc2c[nH]c3ccccc23)c1` (stereo not shown) [Compound 84], 52%; in that of `N#Cc1cccc(C(C(=O)NCC(c2ccccc2)c2ccccc2)N(CCc2c[nH]cn2)C(=O)Cc2c[nH]c3ccc(Br)cc23)c1` (stereo not shown) [Compound 85], 52%. Same read-out and setting: the same measure for `COc1cccc(C(=O)N(CCc2c[nH]cn2)C(C(=O)NCC(c2ccccc2)c2ccccc2)c2cccc(C#N)c2)c1` (stereo not shown) [Compound 86]: 53%; for `N#Cc1cccc(C(C(=O)NC(c2ccccc2)c2ccccc2)N(CCc2c[nH]cn2)C(=O)C(O)c2ccccc2)c1` (stereo not shown) [Compound 87]: 50%. The same measure, in the same setting: the same measure for `N#Cc1cccc(C(C(=O)NC(c2ccccc2)c2ccccc2)N(CCc2c[nH]cn2)C(=O)c2ccccc2-c2ccccc2)c1` (stereo not shown) [Compound 88]: 53%; for `N#Cc1cccc(C(C(=O)NC(c2ccccc2)c2ccccc2)N(CCc2c[nH]cn2)C(=O)c2ccccc2Oc2ccccc2)c1` (stereo not shown) [Compound 89]: 56%; for `N#Cc1cccc(C(C(=O)NC(c2ccccc2)c2ccccc2)N(CCc2c[nH]cn2)C(=O)c2cccs2)c1` (stereo not shown) [Compound 90]: 51%.

The assay is the same for the next values; noted with them: Mus musculus, human TNF-α + actinomycin D, read-out: TNFα IC50.
One may read the IC50 as the point on the concentration scale where inhibition reaches its midpoint. `CN(C)CCN(C(=O)c1ccccc1C(=O)c1ccccc1)C(Cc1ccccc1)C(=O)NCC(c1ccccc1)c1ccccc1` (stereo not shown) [Compound 41]: the 50% inhibitory concentration (IC50) is 6.49 µM. Consider `N#Cc1ccc(C(C(=O)NCC(c2ccccc2)c2ccccc2)N(CCc2c[nH]cn2)C(=O)c2ccccc2C(=O)c2ccccc2)cc1` (stereo not shown) [Compound 51], for which the concentration for half-maximal inhibition (IC50) stood at 3.56 µM.

Regarding `O=C(c1ccccc1)c1ccccc1C(=O)N(CCc1c[nH]cn1)C(C(=O)NCC(c1ccccc1)c1ccccc1)c1ccc(-c2ccccc2)o1` (stereo not shown) [Compound 52], the IC50 was found to be 3.49 µM. Still for that read-out and setting: in the case of `N#Cc1cccc(C(C(=O)NCC(c2ccccc2)c2ccccc2)N(CCc2c[nH]cn2)C(=O)c2ccccc2COc2ccccc2)c1` (stereo not shown) [Compound 53] it was 7.13 µM; in that of `N#Cc1cccc(C(C(=O)NCC(c2ccccc2)c2ccccc2)N(CCc2c[nH]cn2)C(=O)c2ccccc2C(=O)OCc2ccccc2)c1` (stereo not shown) [Compound 55], 7.64 µM; in that of `CN(C)CCN(C(=O)c1ccccc1C(=O)c1ccccc1)C(C(=O)NCC(c1ccccc1)c1ccccc1)c1ccccc1` (stereo not shown) [Compound 56], 6.63 µM.

Staying with this assay, now noted: human TNF-α + actinomycin D, read-out: TNFα IC50.
For `O=C(c1ccccc1)c1ccccc1C(=O)N(CCc1c[nH]cn1)[C@H](Cc1ccccc1)C(=O)NCC(c1ccccc1)c1ccccc1` [Compound 47, 2-Benzoyl-N-[(1′R)-1′(2,2′-diphenyl-ethylcarbamoyl)-2′-phenyl-ethyl]-N-[2-(1H-imidazol-4-yl)-ethyl]-benzamide], the IC50 amounted to 5.58 µM.
